Patent US20040005997A1, “Methods for identifying compounds for regulating muscle mass of function using amylin receptors” (The Procter & Gamble Company, priority 2002, published 2004)

Experiments:
[1] = system: leg casting disuse atrophy model; experiment: leg casting disuse atrophy model; format: in vivo, mouse
Experimental: Legend: A—physiological saline (control); B—amylin (0.1 mg/kg)+theophylline; C—amylin (0.3 mg/kg)+theophylline; D—amylin (1.0 mg/kg)+theophylline; *—p≦0.05 compared to saline. Following casting of the right hind leg, male mice were injected subcutaneously in the midscapular region twice daily, with amylin or vehicle control (physiological saline) for ten days at the daily delivered dose indicated. Amylin was co-administered with twice daily intra-peritoneal dosing of the phosphodiesterase inhibitor theophylline (30 mg/kg). On day ten, the medial gastrocnemius and tibialis anterior muscles were removed and weighed to determine the degree of atrophy.
The leg casting disuse atrophy model involves casting one hind leg of an animal from the knee down through the foot. Typically, muscle mass is reduced 20-40% after ten days of casting. Following casting, test compounds are administered by injection or by continuous infusion via implantation of an osmotic minipump (e.g., Alzet, Palo Alto, Calif.) to determine their effect on leg casting induced skeletal muscle atrophy. At various times following leg casting, the extent of atrophy in the affected muscles is analyzed as described above for the denervation model.

[2] = system: mouse glucocorticoid-induced atrophy model; experiment: mouse glucocorticoid-induced atrophy model; format: in vivo
Experimental: Legend: A—water only with no dexamethasone included in drinking water (non-atrophied control); B—water+dexamethasone (atrophied control); C—amylin (0.3 mg/kg/d)+theophylline+dexamethasone; D—amylin (1.0 mg/kg/d)+theophylline+dexamethasone; *—p≦0.05 compared to water; #—p≦0.05 compared to water+dexamethasone. Following the addition of the glucocorticoid, dexamethasone, to the drinking water (1.2 mg/kg/d), male mice were injected subcutaneously in the midscapular region twice daily with amylin, at the doses indicated above or vehicle control (physiological saline) for nine days. Amylin was co-administered with twice daily intra-peritoneal dosing of the phosphodiesterase inhibitor theophylline (30 mg/kg). Nine days following the initiation of dosing amylin, the medial gastrocnemius and tibialis anterior muscles were removed and weighed to determine the degree of atrophy.
The glucocorticoid-induced atrophy model involves the administration of a glucocorticoid to the test animal, e.g., 1.2 mg/kg/day of dexamethasone in the drinking water. Typically, in untreated animals, skeletal muscle mass is reduced 30-50% following ten days of dexamethasone administration. Concomitantly with, or following glucocorticoid administration, test compounds are administered e.g., by injection or by continuous infusion to determine their effect on glucocorticoid-induced skeletal muscle atrophy. At various times following glucocorticoid administration, the extent of atrophy in the affected muscles is analyzed as described above for the denervation model.

[3] = system: mouse sciatic nerve denervation atrophy model; experiment: mouse sciatic nerve denervation atrophy model; format: in vivo
Experimental: Legend: A—non-denervated medial gastrocnemius muscle from mice treated with physiological saline (non-atrophied control); B—denervated medial gastrocnemius muscle from mice treated with physiological saline (atrophied control); C—amylin (0.03 mg/kg)+theophylline; D—amylin (0.1 mg/kg)+theophylline; E—amylin (0.3 mg/kg)+theophylline. * —p≦0.05 compared to saline. Following denervation of the right sciatic nerve, male mice were injected subcutaneously in the midscapular region twice daily with amylin, at the doses indicated above or vehicle control (physiological saline) for nine days. […] On day nine, the medial gastrocnemius muscle was removed and weighed to determine the degree of atrophy.
The sciatic nerve denervation atrophy model involves anesthetizing the animal followed by the surgical removal of a short segment of either the right or left sciatic nerve, e.g., in mice the sciatic nerve is isolated approximately at the midpoint along the femur and a 3-5 mm segment is removed. This denervates the lower hind limb musculature resulting in atrophy of these muscles. Typically, innervation to the biceps femoris is left intact to provide satisfactory motion of the knee for virtually normal ambulation. […] The extent of atrophy in the affected muscles is analyzed, for example, by measuring muscle mass, muscle cross-sectional area, myofiber cross-sectional area or contractile protein content.

[4] = system: human subject in a comatose state; experiment: prophylactic treatment of skeletal muscle atrophy in comatose state (Example 13); format: in vivo; conditions: human 60 kg, 5 ml of 12 mg/ml amylin stock in 500 ml saline, slow i.v. infusion once each day
Experimental: A human subject weighing 60 kg is admitted to the hospital in a comatose state. The subject is treated by this method to prevent atrophy of the skeletal muscle of the entire body due to disuse in the comatose state. Specifically, once each day while in the coma, the subject is administered, via slow intravenous infusion, approximately 500 ml of an aqueous solution that is prepared by addition of 5 ml of the following stock solution to 500 ml of sterile saline: […]

Row | Compound | effect on skeletal muscle atrophy, theophylline administered alone ([1]; casting disuse model, theophylline alone) | effect on skeletal muscle atrophy, theophylline administered alone ([2]; glucocorticoid-induced model, theophylline alone) | effect on skeletal muscle atrophy, theophylline administered alone ([3]; denervation model, theophylline alone) | skeletal muscle mass and function [4] | disuse-induced (casting) atrophy of the tibialis anterior muscle (muscle weight) ([1]; male mice, casted right hind leg, amylin 0.1, 0.3, 1.0 mg/kg s.c. twice daily + theophylline 30 mg/kg i.p., ten days, FIG. 3A) | disuse-induced (casting) atrophy of the medial gastrocnemius muscle (muscle weight) ([1]; male mice, casted right hind leg, amylin 0.1, 0.3, 1.0 mg/kg s.c. twice daily + theophylline 30 mg/kg i.p., ten days, FIG. 3B) | hypertrophy of the tibialis anterior muscle of the non-casted leg ([1]; male mice, non-casted (normal) leg, amylin 0.1, 0.3, 1.0 mg/kg s.c. twice daily + theophylline 30 mg/kg i.p., ten days, FIG. 3A) | hypertrophy of the medial gastrocnemius muscle of the non-casted leg ([1]; male mice, non-casted (normal) leg, amylin 0.1, 0.3, 1.0 mg/kg s.c. twice daily + theophylline 30 mg/kg i.p., ten days, FIG. 3B) | glucocorticoid-induced atrophy of the tibialis anterior muscle (muscle weight) ([2]; male mice, dexamethasone 1.2 mg/kg/d in drinking water, amylin 0.3, 1.0 mg/kg/d s.c. twice daily + theophylline 30 mg/kg i.p., nine days, FIG. 2A) | glucocorticoid-induced atrophy of the medial gastrocnemius muscle (muscle weight) ([2]; male mice, dexamethasone 1.2 mg/kg/d in drinking water, amylin 0.3, 1.0 mg/kg/d s.c. twice daily + theophylline 30 mg/kg i.p., nine days, FIG. 2B) | denervation-induced atrophy of the medial gastrocnemius muscle (muscle weight) ([3]; male mice, amylin 0.03, 0.1, 0.3 mg/kg s.c. twice daily + theophylline 30 mg/kg i.p. twice daily, nine days, FIG. 1)
1 | Cn1c(=O)c2[nH]cnc2n(C)c1=O [Theophylline, theophylline] | no effect | no effect | no effect |  |  |  |  |  |  |  | 
2 | amylin (KCNTATCATQRLANFLVHSSNNFGAILSSTNVGSNTY; Islet amyloid polypeptide; UniProt P10997 34-70, looked up) [a 37 amino acid peptide; the ligand/agonist of the amylin receptors] |  |  |  | measurable preservation of skeletal muscle mass and function | inhibits disuse-induced atrophy | inhibits disuse-induced atrophy | statistically significant hypertrophy | statistically significant hypertrophy | inhibits glucocorticoid-induced muscle atrophy | inhibits glucocorticoid-induced muscle atrophy | inhibits denervation-induced atrophy
